From patent publication US9493466B2, “Treatment of cancer with TOR kinase inhibitors” (Signal Pharmaceuticals, LLC, priority 2011, dated 2016)

What was measured:
[1] = test system: U87MG tumors; assay: Ki67 immunohistochemistry in U87MG tumors; assay type: in vivo, mice; conditions: 5 mg/kg BID oral for 4 days; p<0.001
Experimental: Mechanism of action studies. To determine the mechanism of action of Compound 1, mice bearing U87MG tumors of approximately 500 mm^3 were dosed orally with vehicle or Compound 1 at 5 mg/kg BID for 4 days. The positive control, rapamycin, was dosed at 4 mg/kg Q3D for 4 days. Two hours after the 7th dose of Compound 1 on day 4, animals were euthanized and tumors were dissected out and snap frozen in liquid nitrogen. In the rapamycin-treated group tumors were collected at 2 hour after the 2nd dose on day 4. The tumors were processed for immunohistochemistry (IHC) or TUNEL.
Immunohistochemistry. Five to ten micron (5-10 μm) thick cryostat sections were used for IHC. The expression of the cell proliferation marker Ki67 was evaluated by IHC using anti-Ki67 antibody. […] The sections were visualized with a Nikon E800 microscope equipped with fluorescence detection equipment and a digital camera attached to a computer.
Quantitation of Immunohistochemistry. The tissues sections processed for apoptosis or immunostained for proliferating cells (Ki67) or blood vessels were quantitated using Metamorph software. Using 20× objective, 5 different fields from each section, 2-4 sections from each tumor, and 3-4 tumors from each treatment group or control were used for quantitation. The area of interest was expressed as the percent threshold area of the total area. […]

[2] = test system: NET; assay: Phase 1/2 study Part B: tumor response, NET; assay type: in vivo, human
From the text: In Part B, subjects may start Compound 1 at the MTD and/or a lower dose level based on safety, PK and PD data from Part A. Approximately 150 subjects will be treated and evaluated for safety and preliminary antitumor activity after every two cycles of therapy. Tumor types include non-small cell lung cancer (NSCLC), glioblastoma multiforme (GBM), hepatocellular carcinoma (HCC), gastrointestinal neuroendocrine tumor of non-pancreatic origin (NET), diffuse large B-cell lymphoma (DLBCL), multiple myeloma (MM), and hormone receptor positive breast cancer (HRPBC). Up to 20 subjects will be enrolled in each tumor type.
Subjects will be evaluated for efficacy every 2 cycles through cycle 6 and every 3 cycles thereafter. The primary efficacy variable is response. Tumor assessments, including imaging (CT, MRI and/or PET) of the chest and abdomen and other sites as appropriate, will be performed during Screening. Subjects with brain lesions will also have brain scans at Screening and during follow-up tumor assessments. After Screening, tumor assessments (for all tumors except multiple myeloma) will be performed on completion of Cycles 2, 4 and 6 (i.e., on Cycles 3, 5 and 7/Day 1±7 days) and then every 3 months thereafter (e.g., Cycle 10 and 13/Day 1±7 days). Tumor assessment (for multiple myeloma and only NHL/DLBCL with known or suspected marrow involvement) (bone marrow aspiration and biopsy, with PD biomarker analysis, cytogenetic analysis if abnormally present at Screening) will be performed on completion of Cycles 4, 8, 12 and 16 only (i.e., on Cycles 5, 9, 13 and 17/Day 1±7 days). Cytogenetics need not be repeated if normal at Screening. Tumor response will be based on Response Evaluation Criteria in Solid Tumors (RECIST 1.1), International Workshop Criteria (IWC) for NHL/DLBCL or International Uniform Response Criteria (IURC) for Multiple Myeloma, and RANO for GBM, using the post resection MRI scan as the baseline. Given the difficulty in assessing tumor response following salvage surgery, the primary efficacy endpoint for GBM will be the proportion of subjects progression-free at 6 months from Day 1 relative to efficacy evaluable subjects in the GBM type. Subjects will be evaluated for tumor response on completion of Cycle 2, 4, 6, and so on. A descriptive analysis of evidence of anti-tumor activity will be provided based on clinical and radiographic assessments by the investigator, which includes assessment of target lesion, non-target lesion, new lesion and overall response.
For Part B, efficacy variables to be analyzed include tumor response at the end of treatment, the proportion of subject alive and progression-free, and duration of response. […]

CO[C@H]1CC[C@H](N2C(=O)CNc3ncc(-c4ccc(C(C)(C)O)nc4)nc32)CC1 [Compound 1, 7-(6-(2-hydroxypropan-2-yl)pyridin-3-yl)-1-((1r,4r)-4-methoxycyclohexyl)-3,4-dihydropyrazino-[2,3-b]pyrazin-2(1H)-one]
reduction in the number of proliferating cells (Ki67) compared with vehicle [1]: 59% | tumor metabolic activity by PET imaging ([2]; majority of subjects): reductions in tumor metabolic activity | patients meeting Stable Disease (RECIST 1.1) ([2]; patients with sufficient follow up): Six patients | endocrine hormone markers (chromogranin, gastrin, serotonin, glucagon) ([2]; some patients): reductions | carcinoid syndrome-related symptoms ([2]; some patients with refractory baseline symptoms): improvements
